Assays:
Test in all cases: relative viability (nuclei count vs DMSO), 5 days (fraction); higher = more cells survive
201T = system: 201T
Method in brief: (§1)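 Dosing by pin tool came one day after lung cancer cell lines were seeded in 1536-well plates, using either one drug or a fixed anchor-drug dose plus five library-drug doses (not always all listed) in √10 steps. After 5 days, nuclei were counted on 4× images. Relative viability is treated-well nuclei count divided by vehicle-well nuclei count, and values are medians of duplicate plates.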

ABC-1 = system: ABC-1
Method in brief: as §1

CAL-12T = system: CAL-12T
Method in brief: as §1

COR-L23 = system: COR-L23
Method in brief: as §1

HCC-44 = system: HCC-44
Method in brief: as §1

HOP-62 = system: HOP-62
Method in brief: as §1

LC-2-ad = system: LC-2-ad
Method in brief: as §1

LCLC-103H = system: LCLC-103H
Method in brief: as §1

NCI-H1355 = system: NCI-H1355
Method in brief: as §1

NCI-H1395 = system: NCI-H1395
Method in brief: as §1

NCI-H1651 = system: NCI-H1651
Method in brief: as §1

NCI-H1666 = system: NCI-H1666
Method in brief: as §1

NCI-H1993 = system: NCI-H1993
Method in brief: as §1

NCI-H2085 = system: NCI-H2085
Method in brief: as §1

NCI-H2170 = system: NCI-H2170
Method in brief: as §1

NCI-H2228 = system: NCI-H2228
Method in brief: as §1

NCI-H2347 = system: NCI-H2347
Method in brief: as §1

NCI-H23 = system: NCI-H23
Method in brief: as §1

NCI-H322M = system: NCI-H322M
Method in brief: as §1

NCI-H520 = system: NCI-H520
Method in brief: as §1

NCI-H647 = system: NCI-H647
Method in brief: as §1

NCI-H661 = system: NCI-H661
Method in brief: as §1

NCI-H838 = system: NCI-H838
Method in brief: as §1

O=C(O)CCCCC(CCSCc1ccccc1)SCc1ccccc1 (stereo not given) [CPI-613] + COc1cccc2cc(-c3nc([C@H]4CC[C@H](C(=O)O)CC4)n4ncnc(N)c34)[nH]c12 [OSI-027] (partner 0.5 µM)
relative viability (201T; first compound 5 µM): 0.754
relative viability (201T; first compound 15.81 µM): 0.711
relative viability (201T; first compound 50 µM): 0.606
relative viability (201T; first compound 158.11 µM): 0.678
relative viability (201T; first compound 500 µM): 0.818
relative viability (ABC-1; first compound 5 µM): 0.404
relative viability (ABC-1; first compound 15.81 µM): 0.443
relative viability (ABC-1; first compound 50 µM): 0.49
relative viability (ABC-1; first compound 158.11 µM): 0.175
relative viability (ABC-1; first compound 500 µM): 0.167
relative viability (CAL-12T; first compound 5 µM): 0.739
relative viability (CAL-12T; first compound 15.81 µM): 0.515
relative viability (CAL-12T; first compound 50 µM): 0.593
relative viability (CAL-12T; first compound 158.11 µM): 0.0379
relative viability (CAL-12T; first compound 500 µM): 0.0106
relative viability (COR-L23; first compound 5 µM): 0.738
relative viability (COR-L23; first compound 15.81 µM): 0.584
relative viability (COR-L23; first compound 50 µM): 0.562
relative viability (COR-L23; first compound 158.11 µM): 0.169
relative viability (COR-L23; first compound 500 µM): 0.0278
relative viability (HCC-44; first compound 5 µM): 0.432
relative viability (HCC-44; first compound 15.81 µM): 0.405
relative viability (HCC-44; first compound 50 µM): 0.501
relative viability (HCC-44; first compound 158.11 µM): 0.489
relative viability (HCC-44; first compound 500 µM): 0.0788
relative viability (HOP-62; first compound 5 µM): 0.74
relative viability (HOP-62; first compound 15.81 µM): 0.759
relative viability (HOP-62; first compound 50 µM): 0.799
relative viability (HOP-62; first compound 158.11 µM): 0.477
relative viability (HOP-62; first compound 500 µM): 0.301
relative viability (LC-2-ad; first compound 5 µM): 0.893
relative viability (LC-2-ad; first compound 15.81 µM): 0.744
relative viability (LC-2-ad; first compound 50 µM): 0.8
relative viability (LC-2-ad; first compound 158.11 µM): 0.505
relative viability (LC-2-ad; first compound 500 µM): 0.0505
relative viability (LCLC-103H; first compound 5 µM): 0.424
relative viability (LCLC-103H; first compound 15.81 µM): 0.428
relative viability (LCLC-103H; first compound 50 µM): 0.345
relative viability (LCLC-103H; first compound 158.11 µM): 0.377
relative viability (LCLC-103H; first compound 500 µM): 0.317
relative viability (NCI-H1355; first compound 5 µM): 0.388
relative viability (NCI-H1355; first compound 15.81 µM): 0.347
relative viability (NCI-H1355; first compound 50 µM): 0.345
relative viability (NCI-H1355; first compound 158.11 µM): 0.29
relative viability (NCI-H1355; first compound 500 µM): 0.0712
relative viability (NCI-H1395; first compound 5 µM): 0.67
relative viability (NCI-H1395; first compound 15.81 µM): 0.602
relative viability (NCI-H1395; first compound 50 µM): 0.668
relative viability (NCI-H1395; first compound 158.11 µM): 0.694
relative viability (NCI-H1395; first compound 500 µM): 0.568
relative viability (NCI-H1651; first compound 5 µM): 0.66
relative viability (NCI-H1651; first compound 15.81 µM): 0.79
relative viability (NCI-H1651; first compound 50 µM): 0.616
relative viability (NCI-H1651; first compound 158.11 µM): 0.333
relative viability (NCI-H1651; first compound 500 µM): 0.0775
relative viability (NCI-H1666; first compound 5 µM): 0.866
relative viability (NCI-H1666; first compound 15.81 µM): 0.856
relative viability (NCI-H1666; first compound 50 µM): 0.798
relative viability (NCI-H1666; first compound 158.11 µM): 0.281
relative viability (NCI-H1666; first compound 500 µM): 0.151
relative viability (NCI-H1993; first compound 5 µM): 0.531
relative viability (NCI-H1993; first compound 15.81 µM): 0.572
relative viability (NCI-H1993; first compound 50 µM): 0.567
relative viability (NCI-H1993; first compound 158.11 µM): 0.46
relative viability (NCI-H1993; first compound 500 µM): 0.375
relative viability (NCI-H2085; first compound 5 µM): 0.727
relative viability (NCI-H2085; first compound 15.81 µM): 0.659
relative viability (NCI-H2085; first compound 50 µM): 0.787
relative viability (NCI-H2085; first compound 158.11 µM): 0.308
relative viability (NCI-H2085; first compound 500 µM): 0.112
relative viability (NCI-H2170; first compound 5 µM): 0.718
relative viability (NCI-H2170; first compound 15.81 µM): 0.715
relative viability (NCI-H2170; first compound 50 µM): 0.662
relative viability (NCI-H2170; first compound 158.11 µM): 0.482
relative viability (NCI-H2170; first compound 500 µM): 0.101
relative viability (NCI-H2228; first compound 5 µM): 0.538
relative viability (NCI-H2228; first compound 15.81 µM): 0.467
relative viability (NCI-H2228; first compound 50 µM): 0.525
relative viability (NCI-H2228; first compound 158.11 µM): 0.192
relative viability (NCI-H2228; first compound 500 µM): 0.072
relative viability (NCI-H2347; first compound 5 µM): 0.325
relative viability (NCI-H2347; first compound 15.81 µM): 0.407
relative viability (NCI-H2347; first compound 50 µM): 0.336
relative viability (NCI-H2347; first compound 158.11 µM): 0.373
relative viability (NCI-H2347; first compound 500 µM): 0.456
relative viability (NCI-H23; first compound 5 µM): 0.651
relative viability (NCI-H23; first compound 15.81 µM): 0.531
relative viability (NCI-H23; first compound 50 µM): 0.62
relative viability (NCI-H23; first compound 158.11 µM): 0.263
relative viability (NCI-H23; first compound 500 µM): 0.0292
relative viability (NCI-H322M; first compound 5 µM): 0.511
relative viability (NCI-H322M; first compound 15.81 µM): 0.422
relative viability (NCI-H322M; first compound 50 µM): 0.515
relative viability (NCI-H322M; first compound 158.11 µM): 0.336
relative viability (NCI-H322M; first compound 500 µM): 0.0015
relative viability (NCI-H520; first compound 5 µM): 0.268
relative viability (NCI-H520; first compound 15.81 µM): 0.243
relative viability (NCI-H520; first compound 50 µM): 0.208
relative viability (NCI-H520; first compound 158.11 µM): 0.179
relative viability (NCI-H520; first compound 500 µM): 0.141
relative viability (NCI-H647; first compound 5 µM): 0.667
relative viability (NCI-H647; first compound 15.81 µM): 0.498
relative viability (NCI-H647; first compound 50 µM): 0.445
relative viability (NCI-H647; first compound 158.11 µM): 0.147
relative viability (NCI-H647; first compound 500 µM): 0.0299
relative viability (NCI-H661; first compound 5 µM): 0.684
relative viability (NCI-H661; first compound 15.81 µM): 0.601
relative viability (NCI-H661; first compound 50 µM): 0.597
relative viability (NCI-H661; first compound 158.11 µM): 0.413
relative viability (NCI-H661; first compound 500 µM): 0.126
relative viability (NCI-H838; first compound 5 µM): 0.354
relative viability (NCI-H838; first compound 15.81 µM): 0.335
relative viability (NCI-H838; first compound 50 µM): 0.301
relative viability (NCI-H838; first compound 158.11 µM): 0.235
relative viability (NCI-H838; first compound 500 µM): 0.0809

— the supplement of paper PMC10307832
